Results: EP3046573B1, “AMYLIN ANALOGUES” (Zealand Pharma A/S, priority 2013, dated 2015)
Like-named read-outs stand apart in the source and are kept apart here. Numbered stars: 1 amine (or outer) side, 2 acyl side, 3 side chain; on linkers, the order of the positions; unused ones are H or OH. Bridge positions count the residues as written; N and C are the ends. Square brackets hold non-standard residues; d marks the D form. Peptide text beside a SMILES is read from it. * marks the point of attachment. C20 diacid = O=C(O)CCCCCCCCCCCCCCCCCCC(=O)*; γGlu = O=C(O)[C@H](CCC(=O)[*:2])N[*:1]; NMeI = CC[C@H](C)[C@H](NC)C(=O)O; Sar = CNCC(=O)O

Experiments:
[1] = target: T1, human calcitonin receptor (hCTR2) (Homo sapiens, UniProt P30988); assay: hCTR2 assay: induction of cAMP (AlphaScreen cAMP Assay kit) in COS7 cells expressing hCTR2; type: cell-based
T1 construct: expressed in transfected cells
T1 sequence (P30988 25-474): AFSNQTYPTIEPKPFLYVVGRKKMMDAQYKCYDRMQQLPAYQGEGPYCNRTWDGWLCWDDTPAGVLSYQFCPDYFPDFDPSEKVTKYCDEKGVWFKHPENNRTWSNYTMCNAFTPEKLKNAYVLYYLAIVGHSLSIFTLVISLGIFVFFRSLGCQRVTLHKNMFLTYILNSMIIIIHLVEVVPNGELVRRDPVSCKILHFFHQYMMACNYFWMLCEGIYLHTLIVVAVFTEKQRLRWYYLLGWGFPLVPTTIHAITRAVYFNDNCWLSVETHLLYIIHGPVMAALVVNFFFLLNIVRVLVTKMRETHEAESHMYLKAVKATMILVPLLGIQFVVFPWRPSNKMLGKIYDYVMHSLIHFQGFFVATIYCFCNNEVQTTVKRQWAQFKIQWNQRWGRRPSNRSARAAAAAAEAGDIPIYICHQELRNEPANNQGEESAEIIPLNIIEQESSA
Method in brief: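 Stable hCTR2 clone in RAMP-naive COS7 cells; peptides titrated in Tyrode buffer (pH 7.4) with 100 µM IBMX, 0.1% casein, 15 min at 37° C. cAMP read by AlphaScreen after lysis; EC50 and efficacy relative to pramlintide from 4PL fit.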

[2] = Solubility assessment (turbidity absorbance at 325 nm); type: physicochemical; details: stock 2 mg/ml diluted 1:1, ambient temperature (typically 25°C), n=1; for Solubility, Acetate buffer pH 4: 100 mM acetate buffer pH 4.0; for Solubility, Acetate buffer pH 5: 100 mM acetate buffer pH 5.0; for Solubility, Histidine buffer pH 6: 100 mM histidine buffer pH 6.0; for Solubility, Histidine buffer pH 7: 100 mM histidine buffer pH 7.0; for Solubility, Phosphate buffer pH 6: 100 mM phosphate buffer pH 6.0; for Solubility, Phosphate buffer pH 7: 100 mM phosphate buffer pH 7.0; for Solubility, Phosphate buffer pH 7.5: 100 mM phosphate buffer pH7.5
Method in brief: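 Peptide stock (2 mg/ml) in water acidified to pH 2.5 with HCl was diluted 1:1 into 100 mM acetate (pH 4.0, 5.0), histidine (pH 6.0, 7.0) or phosphate (pH 6.0, 7.0, 7.5) buffer. A280 and A325 were read at about 25°C, n=1. A325 ≤ 0.02 meant solubility ≥ 1 mg/ml.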

[3] = cAMP induction in COS7 cells expressing hCTR2, average of a minimum of 3 determinations, read-out: hCTR2 EC50

CC[C@H](C)[C@@H](C(=O)N[C@@H](CC(C)C)C(=O)N[C@@H](CO)C(=O)N[C@@H](CO)C(=O)N[C@H](C(=O)N[C@@H](CC(N)=O)C(=O)N[C@H](C(=O)NCC(=O)N[C@@H](CO)C(=O)N[C@@H](CC(N)=O)C(=O)N[C@H](C(=O)N1CCC[C@H]1C(N)=O)[C@@H](C)O)C(C)C)[C@@H](C)O)N(C)C(=O)[C@H](C)NC(=O)CN(C)C(=O)[C@H](Cc1ccccc1)NC(=O)[C@H](CC(N)=O)NC(=O)[C@H](CC(N)=O)NC(=O)[C@H](CO)NC(=O)[C@H](Cc1c[nH]cn1)NC(=O)[C@H](Cc1c[nH]cn1)NC(=O)[C@H](CC(C)C)NC(=O)[C@H](Cc1ccccc1)NC(=O)[C@H](CCC(=O)O)NC(=O)[C@H](C)NC(=O)[C@H](CC(C)C)NC(=O)[C@H](CCCNC(=N)N)NC(=O)[C@H](CCC(N)=O)NC(=O)[C@@H](NC(=O)[C@H](C)NC(=O)[C@@H]1CSSC[C@H](NC(=O)[C@H](CCCNC(=N)N)NC(=O)CC[C@H](NC(=O)CCCCCCCCCCCCCCCCCCC(=O)O)C(=O)O)C(=O)N[C@@H](CC(N)=O)C(=O)N[C@@H]([C@@H](C)O)C(=O)N[C@@H](C)C(=O)N[C@@H]([C@@H](C)O)C(=O)N1)[C@@H](C)O [Compound 45, [19CD]-isoGlu-RC()NTATC()ATQRLAEFLHHSNNF-Gly(Me)-A-Ile(Me)-LSSTNVGSNTP-NH2] ({C20 diacid-γGlu}-RCNTATCATQRLAEFLHHSNNF[Sar]A[NMeI]LSSTNVGSNTP-NH2; disulfide 2-7)
II (II indicates solubility ≤ 1 mg/ml): Solubility, Acetate buffer pH 4 [2] | Solubility, Acetate buffer pH 5 [2] | Solubility, Histidine buffer pH 6 [2] | Solubility, Histidine buffer pH 7 [2] | Solubility, Phosphate buffer pH 6 [2] | Solubility, Phosphate buffer pH 7 [2] | Solubility, Phosphate buffer pH 7.5 [2]
0.14 nM: EC50 [1]

CC[C@H](C)[C@@H](C(=O)N[C@@H](CC(C)C)C(=O)N[C@@H](CO)C(=O)N[C@@H](CO)C(=O)N[C@H](C(=O)N[C@@H](CC(N)=O)C(=O)N[C@H](C(=O)NCC(=O)N[C@@H](CO)C(=O)N[C@@H](CC(N)=O)C(=O)N[C@H](C(=O)N1CCC[C@H]1C(N)=O)[C@@H](C)O)C(C)C)[C@@H](C)O)N(C)C(=O)CN(C)C(=O)[C@H](Cc1ccccc1)NC(=O)[C@H](CC(N)=O)NC(=O)[C@H](CC(N)=O)NC(=O)[C@H](CO)NC(=O)[C@H](Cc1c[nH]cn1)NC(=O)[C@H](Cc1c[nH]cn1)NC(=O)[C@H](CC(C)C)NC(=O)[C@H](Cc1ccccc1)NC(=O)[C@H](CCC(=O)O)NC(=O)[C@H](C)NC(=O)[C@H](CC(C)C)NC(=O)[C@H](CCCNC(=N)N)NC(=O)[C@H](CCC(N)=O)NC(=O)[C@@H](NC(=O)[C@H](C)NC(=O)[C@@H]1CSSC[C@H](NC(=O)[C@H](CCCNC(=N)N)NC(=O)CC[C@H](NC(=O)CCCCCCCCCCCCCCCCCCC(=O)O)C(=O)O)C(=O)N[C@@H](CC(N)=O)C(=O)N[C@@H]([C@@H](C)O)C(=O)N[C@@H](C)C(=O)N[C@@H]([C@@H](C)O)C(=O)N1)[C@@H](C)O [Compound 46, [19CD]-isoGlu-RC()NTATC()ATQRLAEFLHHSNNF-Gly(Me)-Ile(Me)-LSSTNVGSNTP-NH2] ({C20 diacid-γGlu}-RCNTATCATQRLAEFLHHSNNF[Sar][NMeI]LSSTNVGSNTP-NH2; disulfide 2-7)
II (II indicates solubility ≤ 1 mg/ml): Solubility, Acetate buffer pH 4 [2] | Solubility, Acetate buffer pH 5 [2] | Solubility, Histidine buffer pH 6 [2] | Solubility, Histidine buffer pH 7 [2] | Solubility, Phosphate buffer pH 6 [2] | Solubility, Phosphate buffer pH 7 [2] | Solubility, Phosphate buffer pH 7.5 [2]
0.15 nM: EC50 [1, 3]

CC[C@H](C)[C@@H](C(=O)N[C@@H](CC(C)C)C(=O)N[C@@H](CO)C(=O)N[C@@H](CO)C(=O)N[C@H](C(=O)N[C@@H](CC(N)=O)C(=O)N[C@H](C(=O)NCC(=O)N[C@@H](CO)C(=O)N[C@@H](CC(N)=O)C(=O)N[C@H](C(=O)N1CCC[C@H]1C(N)=O)[C@@H](C)O)C(C)C)[C@@H](C)O)N(C)C(=O)[C@H](C)NC(=O)CN(C)C(=O)[C@H](Cc1ccccc1)NC(=O)[C@H](CC(N)=O)NC(=O)[C@H](CC(N)=O)NC(=O)[C@H](Cc1c[nH]cn1)NC(=O)[C@H](Cc1c[nH]cn1)NC(=O)[C@H](CC(C)C)NC(=O)[C@H](Cc1ccccc1)NC(=O)[C@H](CCC(=O)O)NC(=O)[C@H](C)NC(=O)[C@H](CC(C)C)NC(=O)[C@H](CCCNC(=N)N)NC(=O)[C@H](CCC(N)=O)NC(=O)[C@@H](NC(=O)[C@H](C)NC(=O)[C@@H]1CSSC[C@H](NC(=O)[C@H](CCCNC(=N)N)NC(=O)CC[C@H](NC(=O)CCCCCCCCCCCCCCCCCCC(=O)O)C(=O)O)C(=O)N[C@@H](CC(N)=O)C(=O)N[C@@H]([C@@H](C)O)C(=O)N[C@@H](C)C(=O)N[C@@H]([C@@H](C)O)C(=O)N1)[C@@H](C)O [Compound 47, [19CD]-isoGlu-RC()NTATC()ATQRLAEFLHHNNF-Gly(Me)-A-Ile(Me)-LSSTNVGSNTP-NH2] ({C20 diacid-γGlu}-RCNTATCATQRLAEFLHHNNF[Sar]A[NMeI]LSSTNVGSNTP-NH2; disulfide 2-7)
0.06 nM: EC50 [1, 3]
SS (SS indicates solubility ≥ 1mg/ml): Solubility, Acetate buffer pH 4 [2] | Solubility, Acetate buffer pH 5 [2] | Solubility, Histidine buffer pH 6 [2] | Solubility, Histidine buffer pH 7 [2] | Solubility, Phosphate buffer pH 6 [2] | Solubility, Phosphate buffer pH 7 [2] | Solubility, Phosphate buffer pH 7.5 [2]

CC[C@H](C)[C@@H](C(=O)N[C@@H](CC(C)C)C(=O)N[C@@H](CO)C(=O)N[C@@H](CO)C(=O)N[C@H](C(=O)N[C@@H](CC(N)=O)C(=O)N[C@H](C(=O)NCC(=O)N[C@@H](CO)C(=O)N[C@@H](CC(N)=O)C(=O)N[C@H](C(=O)N1CCC[C@H]1C(N)=O)[C@@H](C)O)C(C)C)[C@@H](C)O)N(C)C(=O)CN(C)C(=O)[C@H](Cc1ccccc1)NC(=O)[C@H](CC(N)=O)NC(=O)[C@H](CC(N)=O)NC(=O)[C@H](Cc1c[nH]cn1)NC(=O)[C@H](Cc1c[nH]cn1)NC(=O)[C@H](CC(C)C)NC(=O)[C@H](Cc1ccccc1)NC(=O)[C@H](CCC(=O)O)NC(=O)[C@H](C)NC(=O)[C@H](CC(C)C)NC(=O)[C@H](CCCNC(=N)N)NC(=O)[C@H](CCC(N)=O)NC(=O)[C@@H](NC(=O)[C@H](C)NC(=O)[C@@H]1CSSC[C@H](NC(=O)[C@H](CCCNC(=N)N)NC(=O)CC[C@H](NC(=O)CCCCCCCCCCCCCCCCCCC(=O)O)C(=O)O)C(=O)N[C@@H](CC(N)=O)C(=O)N[C@@H]([C@@H](C)O)C(=O)N[C@@H](C)C(=O)N[C@@H]([C@@H](C)O)C(=O)N1)[C@@H](C)O [Compound 48, [19CD]-isoGlu-RC()NTATC()ATQRLAEFLHHNNF-Gly(Me)-Ile(Me)-LSSTNVGSNTP-NH2] ({C20 diacid-γGlu}-RCNTATCATQRLAEFLHHNNF[Sar][NMeI]LSSTNVGSNTP-NH2; disulfide 2-7)
SS (SS indicates solubility ≥ 1mg/ml): Solubility, Acetate buffer pH 4 [2] | Solubility, Acetate buffer pH 5 [2] | Solubility, Histidine buffer pH 6 [2] | Solubility, Histidine buffer pH 7 [2] | Solubility, Phosphate buffer pH 6 [2] | Solubility, Phosphate buffer pH 7 [2] | Solubility, Phosphate buffer pH 7.5 [2]
0.12 nM: EC50 [1, 3]
